Experimental findings from PubChem BioAssay AID248 (DTP/NCI, 2004) are described below.

Structures are written as SMILES. “And” between values parts separate entries of the source, which are not always exact repeats. Identical values can stand only once. Toxic doses and inconclusive results are not listed.

This experiment deals with L1210 leukemia ip in BDF1 mice, survival T/C. Put plainly: NCI In Vivo Anticancer Drug Screen. Data for tumor model L1210 Leukemia (intraperitoneal) in B6D2F1 (BDF1) mice. The following applies: endpoint: mean survival time, higher = longer survival. The procedure, abridged: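 Mice bearing the transplanted tumor received compound or vehicle. Survival of the treated group was divided by that of the vehicle-treated control group to give the ratio.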

Where [1] appears, read: dose: 100.0 mg/kg/injection, schedule: Q01DX001 (ip), vehicle: saline.
The mark [2] stands for this setting: dose: 100.0 mg/kg/injection, schedule: Q01DX001 (ip), vehicle: saline with Tween-80.
The mark [3] stands for this setting: dose: 200.0 mg/kg/injection, schedule: Q01DX001 (ip), vehicle: saline with Tween-80.
Setting [4] is: dose: 100.0 mg/kg/injection, schedule: Q01DX009 (ip), vehicle: saline with Tween-80.
[5] abbreviates: dose: 100.0 mg/kg/injection, schedule: Q04DX003 (ip), vehicle: saline with Tween-80.
The mark [6] stands for this setting: dose: 200.0 mg/kg/injection, schedule: Q01DX009 (ip), vehicle: saline with Tween-80.
[7] abbreviates: dose: 200.0 mg/kg/injection, schedule: Q04DX003 (ip), vehicle: saline with Tween-80.
Setting [8] is: dose: 400.0 mg/kg/injection, schedule: Q01DX009 (ip), vehicle: saline with Tween-80.
The mark [9] stands for this setting: dose: 200.0 mg/kg/injection, schedule: Q01DX001 (ip), vehicle: saline.
Where [10] appears, read: dose: 400.0 mg/kg/injection, schedule: Q01DX001 (ip), vehicle: saline.
The mark [11] stands for this setting: dose: 100.0 mg/kg/injection, schedule: Q01DX009 (ip), vehicle: Klucel (hydroxypropylcellulose) (HPC).
Setting [12] is: dose: 100.0 mg/kg/injection, schedule: Q04DX003 (ip), vehicle: Klucel (hydroxypropylcellulose) (HPC).
Setting [13] is: dose: 200.0 mg/kg/injection, schedule: Q01DX009 (ip), vehicle: Klucel (hydroxypropylcellulose) (HPC).
The mark [14] stands for this setting: dose: 200.0 mg/kg/injection, schedule: Q04DX003 (ip), vehicle: Klucel (hydroxypropylcellulose) (HPC).
Setting [15] is: dose: 400.0 mg/kg/injection, schedule: Q01DX009 (ip), vehicle: Klucel (hydroxypropylcellulose) (HPC).
The mark [16] stands for this setting: dose: 400.0 mg/kg/injection, schedule: Q04DX003 (ip), vehicle: Klucel (hydroxypropylcellulose) (HPC).
[17] abbreviates: dose: 50.0 mg/kg/injection, schedule: Q01DX009 (ip), vehicle: saline.
The mark [18] stands for this setting: dose: 100.0 mg/kg/injection, schedule: Q01DX009 (ip), vehicle: saline.
Where [19] appears, read: dose: 100.0 mg/kg/injection, schedule: Q04DX003 (ip), vehicle: saline.
The mark [20] stands for this setting: dose: 200.0 mg/kg/injection, schedule: Q04DX003 (ip), vehicle: saline.
The mark [21] stands for this setting: dose: 100.0 mg/kg/injection, schedule: Q01DX001 (ip), vehicle: Klucel (hydroxypropylcellulose) (HPC).
The mark [22] stands for this setting: dose: 200.0 mg/kg/injection, schedule: Q01DX001 (ip), vehicle: Klucel (hydroxypropylcellulose) (HPC).
Setting [23] is: dose: 400.0 mg/kg/injection, schedule: Q01DX001 (ip), vehicle: Klucel (hydroxypropylcellulose) (HPC).

`CCN(CC)CCCC(C)Nc1ccnc(/C=C/c2ccc(C(F)(F)F)cc2)c1` (stereo not drawn): the T/C reads like this: (dose: 12.5 mg/kg/injection, schedule: Q01DX001 (ip), vehicle: saline) 98 % of control; (dose: 20.0 mg/kg/injection, schedule: Q04DX003 (ip), vehicle: saline) 95 % of control; (dose: 25.0 mg/kg/injection, schedule: Q01DX001 (ip), vehicle: saline) 96 % of control; (dose: 40.0 mg/kg/injection, schedule: Q04DX003 (ip), vehicle: saline) 95 % of control; (dose: 50.0 mg/kg/injection, schedule: Q01DX001 (ip), vehicle: saline) 104 % of control; (dose: 80.0 mg/kg/injection, schedule: Q04DX003 (ip), vehicle: saline) 93 % of control. Besides, the T/C under setting [1] was 86 % of control.

In the case of `O=C(CNC(=O)c1ccc(C(=O)NCC(=O)Nc2ccc(C3=NCCCN3)cc2)cc1)Nc1ccc(C2=NCCCN2)cc1`, the T/C reads like this: (dose: 0.62 mg/kg/injection, schedule: Q01DX015 (ip), vehicle: methylcellulose (MC)) 101 % of control; (dose: 1.25 mg/kg/injection, schedule: Q01DX009 (ip), vehicle: saline) 97 % of control; (dose: 1.25 mg/kg/injection, schedule: Q01DX015 (ip), vehicle: methylcellulose (MC)) 98 % of control; (dose: 2.5 mg/kg/injection, schedule: Q01DX009 (ip), vehicle: saline) 110 % of control; (dose: 2.5 mg/kg/injection, schedule: Q01DX015 (ip), vehicle: methylcellulose (MC)) 98 % of control; (dose: 3.75 mg/kg/injection, schedule: Q01DX015 (ip), vehicle: methylcellulose (MC)) 116 % of control. For the same compound, the T/C by setting is: (dose: 10.0 mg/kg/injection, schedule: Q01DX009 (ip), vehicle: saline) 113 % of control; (dose: 20.0 mg/kg/injection, schedule: Q01DX015 (ip), vehicle: methylcellulose (MC)) 229 % of control; (dose: 25.0 mg/kg/injection, schedule: Q01DX001 (ip), vehicle: methylcellulose (MC)) 106 % of control; (dose: 30.0 mg/kg/injection, schedule: Q01DX015 (ip), vehicle: methylcellulose (MC)) 186 % of control; (dose: 40.0 mg/kg/injection, schedule: Q01DX009 (ip), vehicle: saline) 153 % of control; (dose: 40.0 mg/kg/injection, schedule: Q01DX015 (ip), vehicle: methylcellulose (MC)) 191 % of control. In addition, the T/C is, setting by setting: (dose: 50.0 mg/kg/injection, schedule: Q01DX001 (ip), vehicle: methylcellulose (MC)) 113 % of control; (dose: 60.0 mg/kg/injection, schedule: Q01DX009 (ip), vehicle: Klucel (hydroxypropylcellulose) (HPC)) 256 % of control; (dose: 80.0 mg/kg/injection, schedule: Q01DX009 (ip), vehicle: Klucel (hydroxypropylcellulose) (HPC)) 300 % of control; (dose: 120.0 mg/kg/injection, schedule: Q01DX009 (ip), vehicle: Klucel (hydroxypropylcellulose) (HPC)) 115 % of control; (dose: 160.0 mg/kg/injection, schedule: Q01DX009 (ip), vehicle: Klucel (hydroxypropylcellulose) (HPC)) 102 % of control.

As for `CC(=O)NCCc1[nH]cnc1N=Nc1ccc(Br)cc1`, the T/C was 96 % of control under setting [2]; 96 % of control under setting [3]; 94 % of control (dose: 400.0 mg/kg/injection, schedule: Q01DX001 (ip), vehicle: saline with Tween-80).

Take `CCCCCCCCCCCCCC(=O)CC`: the T/C reads like this: (dose: 90.0 mg/kg/injection, schedule: Q01DX009 (ip), vehicle: saline with Tween-80) 98 % of control; under setting [4], 92 % of control and 96 % of control; under setting [5], 96 % of control; (dose: 135.0 mg/kg/injection, schedule: Q01DX009 (ip), vehicle: saline with Tween-80) 87 % of control; under setting [6], 87 % of control and 88 % of control; under setting [7], 96 % of control. Also, the T/C runs as follows: (dose: 300.0 mg/kg/injection, schedule: Q01DX009 (ip), vehicle: saline with Tween-80) 92 % of control; under setting [8], 97 % of control and 105 % of control; (dose: 400.0 mg/kg/injection, schedule: Q04DX003 (ip), vehicle: saline with Tween-80) 102 % of control.

As for `Clc1ccc(C=Nc2cccc3ccccc23)cc1Cl`, the T/C under setting [4] was 95 % of control, the T/C under setting [6] is 95 % of control and the T/C under setting [8] was 94 % of control.

On to `CC(=O)OC1=C(CC(C)C)C(=O)c2ccccc2C1=O`, for which the T/C is 104 % of control under setting [1], 107 % of control under setting [9] and 103 % of control under setting [10].

Turning to `CC(O)COc1ccc(OCc2ccccc2)cc1` (stereo not drawn), the T/C was 98 % of control under setting [11]; 106 % of control under setting [12]; 95 % of control under setting [13]; 100 % of control under setting [14]; 97 % of control under setting [15]; 92 % of control under setting [16].

Regarding `CN(CCN(C)Cc1ccccc1)Cc1ccccc1`, the T/C under setting [17] is 98 % of control, the T/C under setting [18] is 101 % of control, the T/C under setting [19] is 103 % of control and the T/C under setting [20] is 98 % of control.

With `COC(=O)C(C)CN1CCCCC1` (stereo not drawn), the T/C is 101 % of control under setting [17]; 97 % of control under setting [18]; 102 % of control under setting [19]; 101 % of control (dose: 200.0 mg/kg/injection, schedule: Q01DX009 (ip), vehicle: saline); 105 % of control under setting [20].

Take `O=C1CCC2(CCC(=O)c3ccccc32)C(=O)N1` (stereo not drawn): the T/C is 104 % of control (dose: 50.0 mg/kg/injection, schedule: Q01DX009 (ip), vehicle: Klucel (hydroxypropylcellulose) (HPC)); 104 % of control under setting [11]; 93 % of control under setting [12]; 104 % of control under setting [13]; 93 % of control under setting [14]; 108 % of control under setting [15]. Further, under setting [16], the T/C is 100 % of control.

Regarding `Cn1c(C[N+](C)(C)C)cc2ccccc21`, the T/C was 104 % of control under setting [5] and 96 % of control under setting [7].

On to `CCOC(=O)NCc1cccc2ccccc12`, for which the T/C is 93 % of control (dose: 50.0 mg/kg/injection, schedule: Q01DX001 (ip), vehicle: Klucel (hydroxypropylcellulose) (HPC)); 98 % of control under setting [21]; 90 % of control under setting [22]; 86 % of control under setting [23].

Consider `CCCCN(CCCC)C(=O)N(CCCC)CCCC`, for which the T/C is, setting by setting: (dose: 50.0 mg/kg/injection, schedule: Q01DX001 (ip), vehicle: saline with Tween-80) 98 % of control; under setting [2], 107 % of control; under setting [3], 101 % of control.

Take `ClCC1=NC2C(Cl)C(Cl)C(Cl)C(Cl)C2N1` (stereo not drawn): the T/C (dose: 100.0 mg/kg/injection, schedule: Q04DX002 (ip), vehicle: Klucel (hydroxypropylcellulose) (HPC)) is 111 % of control; the T/C (dose: 200.0 mg/kg/injection, schedule: Q04DX002 (ip), vehicle: Klucel (hydroxypropylcellulose) (HPC)) was 100 % of control; the T/C (dose: 400.0 mg/kg/injection, schedule: Q04DX002 (ip), vehicle: Klucel (hydroxypropylcellulose) (HPC)) is 100 % of control.

As to `CCOc1nc2ccccc2c2cc3ccccc3cc12`, the T/C by setting is: under setting [1], 103 % of control; under setting [9], 109 % of control; under setting [10], 111 % of control.

`CNc1cc(Cl)c(C#N)c(Cl)c1`: the T/C is 105 % of control under setting [21]; 94 % of control under setting [12]; 105 % of control under setting [22]; 100 % of control under setting [14]; 103 % of control under setting [23]; 99 % of control under setting [16].

On to `O=S(=O)(Cc1ccc(Cl)cc1Cl)Cc1ccc(Cl)cc1Cl`, for which the T/C is, setting by setting: under setting [12], 89 % of control; under setting [14], 87 % of control; under setting [16], 87 % of control.
